Assay results reported in patent US7767240B2, “Microbiological control in poultry processing” (priority 2001, dated 2010).

Tests used:
Format in all cases: cell-based
Conditions in all cases: pH 8
[1] = test system: total bacteria (S. sonnei, L. monocytogenes, E. coli, S. enteritidis, P. aeruginosa, C. jejuni); experiment: Total bacteria reduction from control over 20-day storage (Example 4)
Protocol: (§1) A study was conducted to determine the effect of Clorox® bleach, and 1,3-dibromo-5,5-dimethylhydantoin (DBDMH) on carcass bacteria residual after 1.5 hour in a chill tank solution and spoilage 20-day shelf life longevity (caused by bacteria contamination). Tests were conducted at pH 8 (adjusted by trisodium phosphate). Skin pigmentation (Minolta Color Meter L value or Lightness, a value or redness and b value or yellowness) were determined before and post-processing.
(§2) In general the study involved normal processing of 56-day-old birds, immersing carcasses first in a warm bath containing 10^4 per mL Escherichia coli, 10^4 per mL Salmonella enteritidis, 10^4 per mL Pseudomonas aeruginosa, 10^4 per mL Campylobacter jejuni, and 10^4 per mL spoilage bacteria each from […] strains (Listeria monocytogenes and Shigella sonnei). Carcass were then immersed in a chill tank “soup”, containing normal organic fluids (blood, fat, skin, and meat particles) and containing various disinfectants (termed test materials).
(§3) A DBDMH stock solution and test solutions, a bacteria stock solution, and a “chicken soup” were prepared as in Example 3. In addition, the bacterial broth treatments, the whole bird wash sampling procedure, and the methodologies used for quantitative or qualitative determinations for bacterial organisms were conducted as in Example 3.
(§4) In greater detail the trial events and experimental design used in this group of tests were as follows: • a) Test microorganisms used were: • Escherichia coli ATCC 11229 • Pseudomonas aeruginosa ATCC 15442 • Salmonella enteritidis ATCC 13076 • Shigella sonnei ATCC 9290 • Listeria monocytogenes ATCC 7644 • Campylobacter jejuni ATCC 29428 • b) Test Procedure: All test strains were grown individually at 35° C. for 24 hours in the media specified in Table 12. Cells were harvested by centrifugation at 10,000×g for 10 minutes and washed twice with Butterfield's Phosphate Buffer (BPB of pH 7.2). Cells were resuspended in BPB to obtain a cell suspension of approximately 1.0×10^8 CFU/mL for each microorganism. The target inoculum levels were approximately 10^6 CFU/mL in the final test solutions. In the cases of S. enteritidis and P. aeruginosa the species were washed by pouring into prepared sterile centrifuge tubes with cheesecloth filters. The culture was then pelleted and washed using above techniques and repeated 3 times. • c) The birds (56 days old) were processed under normal commercial conditions. • d) The bacteria were added to a large batch of the “chicken soup”, and then aliquots of the resultant mixture were distributed equally among the chill waters used for each test. Then the particular disinfectant composition under test was added to one of the chill waters. […]

[2] = test system: Pseudomonas aeruginosa ATCC 15442; experiment: Bacteria count per bird over 20-day storage (Example 4)
Protocol: as §1, §2, §3, §4

[3] = test system: Listeria monocytogenes ATCC 7644; experiment: as above
Protocol: as §1, §2, §3, §4

[4] = test system: Escherichia coli ATCC 11229; experiment: as above
Protocol: as §1, §2, §3, §4

[5] = test system: Salmonella enteritidis ATCC 13076; experiment: as above
Protocol: as §1, §2, §3, §4

Compound: CC1(C)C(=O)N(Br)C(=O)N1Br [DBDMH, 1,3-dibromo-5,5-dimethylhydantoin]
- Percentage of Total Bacteria Reduction From Control (Mean % Reduction From Control) ([1]; Day 0 post-processing, 10 ppm): 77.8%
- Percentage of Total Bacteria Reduction From Control (Mean % Reduction From Control) ([1]; Day 0 post-processing, 20 ppm): 99.5%
- Percentage of Total Bacteria Reduction From Control (Mean % Reduction From Control) ([1]; Day 2 post-processing, 10 ppm): 77.3%
- Percentage of Total Bacteria Reduction From Control (Mean % Reduction From Control) ([1]; Day 2 post-processing, 20 ppm): 99.4%
- Percentage of Total Bacteria Reduction From Control (Mean % Reduction From Control) ([1]; Day 4 post-processing, 10 ppm): 76.8%
- Percentage of Total Bacteria Reduction From Control (Mean % Reduction From Control) ([1]; Day 4 post-processing, 20 ppm): 99.2%
- Percentage of Total Bacteria Reduction From Control (Mean % Reduction From Control) ([1]; Day 6 post-processing, 10 ppm): 77.1%
- Percentage of Total Bacteria Reduction From Control (Mean % Reduction From Control) ([1]; Day 6 post-processing, 20 ppm): 98.5%
- Percentage of Total Bacteria Reduction From Control (Mean % Reduction From Control) ([1]; Day 8 post-processing, 10 ppm): 74.6%
- Percentage of Total Bacteria Reduction From Control (Mean % Reduction From Control) ([1]; Day 8 post-processing, 20 ppm): 97.3%
- Percentage of Total Bacteria Reduction From Control (Mean % Reduction From Control) ([1]; Day 10 post-processing, 10 ppm): 71.9%
- Percentage of Total Bacteria Reduction From Control (Mean % Reduction From Control) ([1]; Day 10 post-processing, 20 ppm): 95.1%
- Percentage of Total Bacteria Reduction From Control (Mean % Reduction From Control) ([1]; Day 12 post-processing, 10 ppm): 69.2%
- Percentage of Total Bacteria Reduction From Control (Mean % Reduction From Control) ([1]; Day 12 post-processing, 20 ppm): 91.2%
- Percentage of Total Bacteria Reduction From Control (Mean % Reduction From Control) ([1]; Day 14 post-processing, 10 ppm): 66.2%
- Percentage of Total Bacteria Reduction From Control (Mean % Reduction From Control) ([1]; Day 14 post-processing, 20 ppm): 84.3%
- Percentage of Total Bacteria Reduction From Control (Mean % Reduction From Control) ([1]; Day 16 post-processing, 10 ppm): 61.9%
- Percentage of Total Bacteria Reduction From Control (Mean % Reduction From Control) ([1]; Day 16 post-processing, 20 ppm): 71.2%
- Percentage of Total Bacteria Reduction From Control (Mean % Reduction From Control) ([1]; Day 18 post-processing, 10 ppm): 58.5%
- Percentage of Total Bacteria Reduction From Control (Mean % Reduction From Control) ([1]; Day 18 post-processing, 20 ppm): 68.0%
- Percentage of Total Bacteria Reduction From Control (Mean % Reduction From Control) ([1]; Day 20 post-processing, 10 ppm): 53.7%
- Percentage of Total Bacteria Reduction From Control (Mean % Reduction From Control) ([1]; Day 20 post-processing, 20 ppm): 67.2%
- average bacteria count per bird, P. aeruginosa ([2]; Day 0, 10 ppm): 743 per bird
- average bacteria count per bird, P. aeruginosa ([2]; Day 0, 20 ppm): 6 per bird
- average bacteria count per bird, P. aeruginosa ([2]; Day 2, 10 ppm): 820 per bird
- average bacteria count per bird, P. aeruginosa ([2]; Day 2, 20 ppm): 9 per bird
- average bacteria count per bird, P. aeruginosa ([2]; Day 4, 10 ppm): 931 per bird
- average bacteria count per bird, P. aeruginosa ([2]; Day 4, 20 ppm): 13 per bird
- average bacteria count per bird, P. aeruginosa ([2]; Day 6, 10 ppm): 1013 per bird
- average bacteria count per bird, P. aeruginosa ([2]; Day 6, 20 ppm): 25 per bird
- average bacteria count per bird, P. aeruginosa ([2]; Day 8, 10 ppm): 1268 per bird
- average bacteria count per bird, P. aeruginosa ([2]; Day 8, 20 ppm): 48 per bird
- average bacteria count per bird, P. aeruginosa ([2]; Day 10, 10 ppm): 1485 per bird
- average bacteria count per bird, P. aeruginosa ([2]; Day 10, 20 ppm): 91 per bird
- average bacteria count per bird, P. aeruginosa ([2]; Day 12, 10 ppm): 1730 per bird
- average bacteria count per bird, P. aeruginosa ([2]; Day 12, 20 ppm): 186 per bird
- average bacteria count per bird, P. aeruginosa ([2]; Day 14, 10 ppm): 2055 per bird
- average bacteria count per bird, P. aeruginosa ([2]; Day 14, 20 ppm): 363 per bird
- average bacteria count per bird, P. aeruginosa ([2]; Day 16, 10 ppm): 2560 per bird
- average bacteria count per bird, P. aeruginosa ([2]; Day 16, 20 ppm): 700 per bird
- average bacteria count per bird, P. aeruginosa ([2]; Day 18, 10 ppm): 3087 per bird
- average bacteria count per bird, P. aeruginosa ([2]; Day 18, 20 ppm): 826 per bird
- average bacteria count per bird, P. aeruginosa ([2]; Day 20, 10 ppm): 3853 per bird
- average bacteria count per bird, P. aeruginosa ([2]; Day 20, 20 ppm): 908 per bird
- average bacteria count per bird, L. monocytogenes ([3]; Day 0, 10 ppm): 528 per bird
- average bacteria count per bird, L. monocytogenes ([3]; Day 0, 20 ppm): 13 per bird
- average bacteria count per bird, L. monocytogenes ([3]; Day 2, 10 ppm): 601 per bird
- average bacteria count per bird, L. monocytogenes ([3]; Day 2, 20 ppm): 19 per bird
- average bacteria count per bird, L. monocytogenes ([3]; Day 4, 10 ppm): 670 per bird
- average bacteria count per bird, L. monocytogenes ([3]; Day 4, 20 ppm): 28 per bird
- average bacteria count per bird, L. monocytogenes ([3]; Day 6, 10 ppm): 741 per bird
- average bacteria count per bird, L. monocytogenes ([3]; Day 6, 20 ppm): 55 per bird
- average bacteria count per bird, L. monocytogenes ([3]; Day 8, 10 ppm): 880 per bird
- average bacteria count per bird, L. monocytogenes ([3]; Day 8, 20 ppm): 107 per bird
- average bacteria count per bird, L. monocytogenes ([3]; Day 10, 10 ppm): 1096 per bird
- average bacteria count per bird, L. monocytogenes ([3]; Day 10, 20 ppm): 218 per bird
- average bacteria count per bird, L. monocytogenes ([3]; Day 12, 10 ppm): 1335 per bird
- average bacteria count per bird, L. monocytogenes ([3]; Day 12, 20 ppm): 442 per bird
- average bacteria count per bird, L. monocytogenes ([3]; Day 14, 10 ppm): 1564 per bird
- average bacteria count per bird, L. monocytogenes ([3]; Day 14, 20 ppm): 843 per bird
- average bacteria count per bird, L. monocytogenes ([3]; Day 16, 10 ppm): 1901 per bird
- average bacteria count per bird, L. monocytogenes ([3]; Day 16, 20 ppm): 1646 per bird
- average bacteria count per bird, L. monocytogenes ([3]; Day 18, 10 ppm): 2221 per bird
- average bacteria count per bird, L. monocytogenes ([3]; Day 18, 20 ppm): 1985 per bird
- average bacteria count per bird, L. monocytogenes ([3]; Day 20, 10 ppm): 2678 per bird
- average bacteria count per bird, L. monocytogenes ([3]; Day 20, 20 ppm): 2238 per bird
- average bacteria count per bird, E. coli ([4]; Day 0, 10 ppm): 861 per bird
- average bacteria count per bird, E. coli ([4]; Day 0, 20 ppm): 22 per bird
- average bacteria count per bird, E. coli ([4]; Day 2, 10 ppm): 966 per bird
- average bacteria count per bird, E. coli ([4]; Day 2, 20 ppm): 31 per bird
- average bacteria count per bird, E. coli ([4]; Day 4, 10 ppm): 1050 per bird
- average bacteria count per bird, E. coli ([4]; Day 4, 20 ppm): 49 per bird
- average bacteria count per bird, E. coli ([4]; Day 6, 10 ppm): 1124 per bird
- average bacteria count per bird, E. coli ([4]; Day 6, 20 ppm): 100 per bird
- average bacteria count per bird, E. coli ([4]; Day 8, 10 ppm): 1364 per bird
- average bacteria count per bird, E. coli ([4]; Day 8, 20 ppm): 204 per bird
- average bacteria count per bird, E. coli ([4]; Day 10, 10 ppm): 1621 per bird
- average bacteria count per bird, E. coli ([4]; Day 10, 20 ppm): 401 per bird
- average bacteria count per bird, E. coli ([4]; Day 12, 10 ppm): 2063 per bird
- average bacteria count per bird, E. coli ([4]; Day 12, 20 ppm): 775 per bird
- average bacteria count per bird, E. coli ([4]; Day 14, 10 ppm): 2581 per bird
- average bacteria count per bird, E. coli ([4]; Day 14, 20 ppm): 1453 per bird
- average bacteria count per bird, E. coli ([4]; Day 16, 10 ppm): 3005 per bird
- average bacteria count per bird, E. coli ([4]; Day 16, 20 ppm): 2933 per bird
- average bacteria count per bird, E. coli ([4]; Day 18, 10 ppm): 3617 per bird
- average bacteria count per bird, E. coli ([4]; Day 18, 20 ppm): 3645 per bird
- average bacteria count per bird, E. coli ([4]; Day 20, 10 ppm): 4460 per bird
- average bacteria count per bird, E. coli ([4]; Day 20, 20 ppm): 4036 per bird
- average bacteria count per bird, S. enteritidis ([5]; Day 0, 10 ppm): 292 per bird
- average bacteria count per bird, S. enteritidis ([5]; Day 0, 20 ppm): 12 per bird
- average bacteria count per bird, S. enteritidis ([5]; Day 2, 10 ppm): 344 per bird
- average bacteria count per bird, S. enteritidis ([5]; Day 2, 20 ppm): 18 per bird
- average bacteria count per bird, S. enteritidis ([5]; Day 4, 10 ppm): 394 per bird
- average bacteria count per bird, S. enteritidis ([5]; Day 4, 20 ppm): 27 per bird
- average bacteria count per bird, S. enteritidis ([5]; Day 6, 10 ppm): 433 per bird
- average bacteria count per bird, S. enteritidis ([5]; Day 6, 20 ppm): 55 per bird
- average bacteria count per bird, S. enteritidis ([5]; Day 8, 10 ppm): 507 per bird
- average bacteria count per bird, S. enteritidis ([5]; Day 8, 20 ppm): 104 per bird
- average bacteria count per bird, S. enteritidis ([5]; Day 10, 10 ppm): 616 per bird
- average bacteria count per bird, S. enteritidis ([5]; Day 10, 20 ppm): 212 per bird
- average bacteria count per bird, S. enteritidis ([5]; Day 12, 10 ppm): 740 per bird
- average bacteria count per bird, S. enteritidis ([5]; Day 12, 20 ppm): 413 per bird
- average bacteria count per bird, S. enteritidis ([5]; Day 14, 10 ppm): 919 per bird
- average bacteria count per bird, S. enteritidis ([5]; Day 14, 20 ppm): 832 per bird
- average bacteria count per bird, S. enteritidis ([5]; Day 16, 10 ppm): 1081 per bird
- average bacteria count per bird, S. enteritidis ([5]; Day 16, 20 ppm): 1711 per bird
- average bacteria count per bird, S. enteritidis ([5]; Day 18, 10 ppm): 1286 per bird
- average bacteria count per bird, S. enteritidis ([5]; Day 18, 20 ppm): 2074 per bird
- average bacteria count per bird, S. enteritidis ([5]; Day 20, 10 ppm): 1513 per bird
- average bacteria count per bird, S. enteritidis ([5]; Day 20, 20 ppm): 2258 per bird
